Assay results taken from patent US9783547B2, “Water soluble 4-azapodophyllotoxin analogs” (CENTRE NATIONAL DE LA RECHERCHE SCIENTIFIQUE (CNRS), priority 2014, dated 2017).
Counter-ions that a name gives are not always drawn.

Assays:
B16 melanoma cells = test: Cytotoxicity assay for murine cancer cells (MTT); type: cell-based; conditions: Mus musculus, 48 h exposure
Experimental: Murine B16 melanoma cells, Lewis lung carcinoma cells and colon 26 carcinoma cells were grown in DMEM medium containing 2 mM L-glutamine, 10% foetal bovine serum, 100 U/mL penicillin and 100 μg/mL streptomycin (37° C., 5% CO2). […] Exponentially growing cells were plated onto 96-well plates at 5000 cells per well in 100 μL of culture medium. 24 h after plating, 100 μl of medium containing the tested compound at final concentrations ranging from 0.01 to 100 μM were added to the wells (in triplicate) containing the cells, and incubated for 48 h at 37° C. and 5% CO2. After the 48 h exposure period to the test compounds, cell viability was assayed using the MTT (methylthiazoletetrazolium) test (Scudiero et al., Cancer Res. 1988, 48, 4827-4833) and absorbance was read at 562 nm in a microplate reader (BioKinetics Reader, EL340). Appropriate controls with DMEM only and MTT were run to subtract background absorbance.

tubulin = test: Tubulin polymerization inhibition assay (DAPI fluorescence); type: biochemical; conditions: for Inhibition of tubulin polymerization at 30 μM: IC50 ND; for IC50: tubulin 1 mg/ml, DAPI, read-out: IPT (inhibition of tubulin polymerization) IC50
Text: Fluorescence was then read at the excitation wavelength of 360 nm and emission of 450 nm.

[1] = tested on: EAhy 926 endothelial cell line; test: Endothelial cell morphology evaluation (rounding up); type: cell-based; conditions: Homo sapiens, EA.hy 926; 2 h incubation; rounding up of more than 15% of cells; read-out: Cmarr EA.hy 926: lowest concentration at which cell rounding up was observed
Text: To assess the effects of the compounds on the morphology of endothelial cells, the EAhy 926 endothelial cell line was used, which is derived from the fusion of human umbilical vein endothelial cells (HUVEC) with the permanent human cell line A549 (Edgell et al, Proc. Natl. Acad. Sci. U.S.A., 1983, vol 80, issue 12, 3734-3737). The EAhy 926 cell line is considered as a good representative of native HUVEC because it expresses most of the biochemical markers of parental HUVEC (Bouis et al., Angiogenesis., 2001, 4, 91-102). EAhy 926 cells were grown in DMEM containing 2 mM L-glutamine, 10% foetal bovine serum, 100 U/mL penicillin and 100 μg/mL streptomycin in a humidified atmosphere (37° C., 5% CO2). Exponentially growing EAhy 926 cells were plated onto 96 well plates at 5000 cells/100 μL/well. Twenty-four hours after plating, the medium was aspirated, and 100 μL of medium containing the test compound was added to the well containing the cells (in triplicate) and incubated for 2 h (37° C., 5% CO2). The highest concentration used was 100 μM followed by serial two-fold dilutions down to low nanomolar concentrations, if needed for the most morphologically active compounds. After the 2 h-incubation period, digital photographs were taken of representative centre areas of each well at a magnification of 100× and 200×. The results are presented as the minimum concentration that could elicit the rounding up of more than 15% of cells in a field in order to exclude normal mitotic cells which is less that 15% in control 1% DMSO treated cells. Triplicate concentrations on the same plate were routinely carried out. CA4 was included in the experiments as a positive internal standard.
Compounds of the invention were first tested on EAhy 926 endothelial cells, which are transformed HUVEC (human umbilical vein endothelial cells). These cells undergo a rounding up upon a short 2 hour exposure to vascular disrupting agents, e.g. combretastatin A4.

Row | melting point [°C] | IC50 (tubulin) [µM] | SMILES | IC50 (B16 melanoma cells) [µM] | Inhibition of tubulin polymerization at 30 μM (tubulin) | minimal effective concentration [1] [µM]
1 | 216 | – | COc1cc(Nc2c3c(nc4cc(C)c(C)cc24)CCCC3=O)cc(OC)c1OC (as salt: hydrochloride) [SGR 364•HCl, 6,7-(Dimethyl)-9-(3,4,5-trimethoxyphenylamino)-3,4-dihydroacridin-1(2H)-one, hydrochloride] | – | – | –
2 | 266 | – | COc1cc(Nc2c3c(nc4cc5c(cc24)OCCO5)CCCC3=O)cc(OC)c1OC (as salt: hydrochloride) [SGR 360•HCl, 6,7-(Ethylenedioxy)-9-(3,4,5-trimethoxyphenylamino)-3,4-dihydroacridin-1(2H)-one, hydrochloride] | – | – | –
3 | 254 to 255 | – | COc1cc(Nc2c3c(nc4cc5c(cc24)OCCO5)CCCC3=O)cc(OC)c1 (as salt: hydrochloride) [SGR 361•HCl, 6,7-(Ethylenedioxy)-9-(3,5-dimethoxyphenylamino)-3,4-dihydroacridin-1(2H)-one, hydrochloride] | – | – | –
4 | 256 | – | COc1cc(Nc2c3c(nc4cc5c(cc24)OCO5)CCCC3=O)cc(OC)c1 (as salt: hydrochloride) [SGR 363•HCl, 6,7-(Methylenedioxy)-9-(3,5-dimethoxyphenylamino)-3,4-dihydroacridin-1(2H)-one, hydrochloride] | – | – | –
5 | – | – | COc1cc(Nc2c3c(nc4cc5c(cc24)OCO5)CCCC3O)cc(OC)c1OC (stereo not drawn) [SGR 308] | 29.5 | ND (31% à 30 μM) | 25
6 | 256 | – | COc1ccc(Nc2c3c(nc4cc5c(cc24)OCO5)CCC3=O)cc1OC (as salt: hydrochloride) [SGR 359•HCl, 6,7-(Methylenedioxy)-9-(3,4-dimethoxyphenylamino)-2,3-dihydro-1H-cyclopenta[b]quinolin-1-one, hydrochloride] | – | – | –
7 | – | 18.2 | COc1cc(Nc2c3c(nc4cc5c(cc24)OCO5)CCC=C3)cc(OC)c1OC [SGR 309] | 11 | – | 3.13
8 | 258 | – | COc1cccc(Nc2c3c(nc4cc5c(cc24)OCO5)CCCC3=O)c1 (as salt: hydrochloride) [SGR 356•HCl, 6,7-(Methylenedioxy)-9-(3-methoxyphenylamino)-3,4-dihydroacridin-1(2H)-one, hydrochloride] | – | – | –
9 | 260 | – | O=C1CCCc2nc3cc4c(cc3c(Nc3ccc5c(c3)OCO5)c21)OCO4 (as salt: hydrochloride) [SGR 355•HCl, 6,7-(Methylenedioxy)-9-(3,4-methylenedioxyphenyl-amino)-3,4-dihydroacridin-1(2H)-one, hydrochloride] | – | – | –
10 | 267 | – | COc1cc(Nc2c3c(nc4cc5c(cc24)OCO5)CCC3=O)cc(OC)c1OC (as salt: hydrochloride) [SGR 358•HCl, 6,7-(Methylenedioxy)-9-(3,4,5-trimethoxyphenylamino)-2,3-dihydro-1H-cyclopenta[b]quinolin-1-one, hydrochloride] | – | – | –
11 | – | – | COc1cc(Nc2c3c(nc4cc5c(cc24)OCO5)CCCC3=O)cc(OC)c1 [SGR 363•HCl, 6,7-(Methylenedioxy)-9-(3,5-dimethoxyphenylamino)-3,4-dihydroacridin-1(2H)-one, hydrochloride] | 1.4 | – | 0.06
12 | – | – | O=C1CCCc2nc3cc4c(cc3c(Nc3ccc5c(c3)OCO5)c21)OCO4 [SGR 355•HCl, 6,7-(Methylenedioxy)-9-(3,4-methylenedioxyphenyl-amino)-3,4-dihydroacridin-1(2H)-one, hydrochloride] | 17.4 | – | 100
13 | – | – | O=C1CCCc2nc3cc4c(cc3cc21)OCO4 [SGR 304] | > 100 | ND (33% à 30 μM) | > 100
14 | – | – | O=C1CCCc2nc3cc4c(cc3c(Cl)c21)OCO4 [SGR 306] | > 100 | ND (3% à 30 μM) | 12.5
15 | – | 1.04 | COc1cc(NC2=C3C(=O)OCC3N(C)c3cc4c(cc32)OCO4)cc(OC)c1OC (stereo not drawn) [SGR 230, reference compound] | 38.4 | – | 0.12
16 | – | – | O=C1CCCc2c1cc1cc3c(cc1[n+]2[O-])OCO3 [SGR 305] | > 100 | ND (22% à 30 μM) | > 100
17 | – | – | COc1cc(Nc2c3c(nc4cc5c(cc24)OCCO5)CCCC3=O)cc(OC)c1OC [SGR 360•HCl, 6,7-(Ethylenedioxy)-9-(3,4,5-trimethoxyphenylamino)-3,4-dihydroacridin-1(2H)-one, hydrochloride] | 8.1 | – | 0.06
18 | – | – | COc1cc(CNc2c3c(nc4cc5c(cc24)OCO5)CCCC3=O)cc(OC)c1OC.Cl [SGR 357•HCl] | 8.9 | ND (18% à 30 μM) | 25
19 | – | – | COc1cc(Nc2c3c(nc4cc(C)c(C)cc24)CCCC3=O)cc(OC)c1OC [SGR 364•HCl, 6,7-(Dimethyl)-9-(3,4,5-trimethoxyphenylamino)-3,4-dihydroacridin-1(2H)-one, hydrochloride] | 12.6 | – | 6.25
20 | – | – | COc1cccc(Nc2c3c(nc4cc5c(cc24)OCO5)CCCC3=O)c1 [SGR 356•HCl, 6,7-(Methylenedioxy)-9-(3-methoxyphenylamino)-3,4-dihydroacridin-1(2H)-one, hydrochloride] | > 100 | – | 50
21 | – | 0.42 | COc1cc(Nc2c3c(nc4cc5c(cc24)OCO5)COC3=O)cc(OC)c1OC [SGR 231, reference compound] | 0.4 | – | 1.95
22 | – | – | COc1cc(Nc2c3c(nc4cc5c(cc24)OCO5)CCC3=O)cc(OC)c1OC [SGR 358•HCl, 6,7-(Methylenedioxy)-9-(3,4,5-trimethoxyphenylamino)-2,3-dihydro-1H-cyclopenta[b]quinolin-1-one, hydrochloride] | 1.01 | – | 0.25
23 | – | – | COc1ccc(Nc2c3c(nc4cc5c(cc24)OCO5)CCC3=O)cc1OC [SGR 359•HCl, 6,7-(Methylenedioxy)-9-(3,4-dimethoxyphenylamino)-2,3-dihydro-1H-cyclopenta[b]quinolin-1-one, hydrochloride] | 17.4 | – | 25

Row | SMILES | melting point [°C] | IC50 (tubulin) [µM] | IC50 (B16 melanoma cells) [µM] | Inhibition of tubulin polymerization at 30 μM (tubulin) | minimal effective concentration [1] [µM]
24 | COc1ccc(/C=C\c2cc(OC)c(OC)c(OC)c2)cc1O [combretastatin A4, reference compound] | – | […] | – | – | –
25 | COc1cc([C@@H]2c3cc4c(cc3[C@H](O)[C@H]3COC(=O)[C@H]23)OCO4)cc(OC)c1OC [podophyllotoxin] | – | […] | – | – | –
